Read-outs that look alike come from different tables or passages of the source.

One series deals with FGF-21. Description: qPCR gene expression analysis in human MSCs. The class given is cell-based. The following applies: for FGF-21 expression increase: 250 μM VPA, 500 nM curcumin, up to 2 weeks, FIG. 13. As to the method: (§1) Beta actin was measured as a house-keeping gene. […] Gene expression was quantified by determining the amount of gene-specific DNA/total cDNA. Data are mean+/−SD of 4 replicates.
(§2) Native human umbilical cord-derived MSCs (Vitro Biopharma Cat. No. SC00A1) were expanded from cryopreservation in a T-25 TC-coated flasks (BD Falcon, Cat. No. 353108) in MSC-GRO™ low serum, complete medium (Vitro Biopharma Cat. No. SC00BI). Cells were subcultured and counted on a Beckerman-Coulter Z2 particle counter (range 10 μm-30 μm). Cells were plated at 10,000/cm^2 a TC-coated Greiner Bio-One T75 flask and maintained in MSC-GRO™ serum free, complete medium (Vitro Biopharma Cat. No. SC00B3) in a reduced 02 environment (1% O2, 5% CO2, 94% N2) at 37° C. in a humidified chamber. The MSCs were treated continuously for up to 2 weeks. Cultures were fed every three days. Cells were harvested using ACCUTASE™ (Innovative Cell Technologies Inc., Cat No AT-104) and centrifuged (450×g) for 7 minutes. Cell supernatant was aspirated off and cells were resuspended in 1 mL PBS and counted on a Beckerman-Coulter Z2 particle counter (range 10 μm-30 μm). Total RNA was extracted using RNeasy Mini Kit (Qiagen Cat. No. 74104). RNA was quantified using an absorbance measurement at 260 nm. RNA was converted to cDNA using Quantitect Reverse Transcription Kit (Qiagen Cat. No. 205310) in a thermocycler. RNA was incubated in the gDNA elimination reaction for 2 minutes at 42° C. then incubated in the reverse-transcription master mix for 15 minutes at 42° C. Immediately after, it was incubated at 95° C. for 3 minutes for inactivation. cDNA was sent to an outside lab (CU-Anschutz Metabolic Laboratory) for q-PCR to detect relative or absolute gene expression levels. cDNA was diluted 1:5 and iTaq Universal Supermix fluorescent probe (BioRad Cat. No. 172-5120) used to detect the threshold cycle (Ct) during PCR. Dilution factors and cDNA concentrations were calculated into recorded values then normalized to untreated hMSCs (Vitro Biopharma Cat. No. SC00A1).
(§3) Gene expression was quantified by determining the amount of gene-specific DNA/total cDNA. Data are mean+/−S.D. of 4 replicates.
(§4) Native human umbilical cord-derived MSCs (Vitro Biopharma Cat. No. SCOOA1) were expanded from cryopreservation in a T-25 TC-coated flasks (BD Falcon, Cat. No. 353108) in MSC-GRO™ low serum, complete medium (Vitro Biopharma Cat. No. SC00B1). Cells were subcultured and counted on a Beckerman-Coulter Z2 particle counter (range 10 μm-30 μm). […] The MSCs were treated continuously for up to 2 weeks. Cultures were fed every three days. Cells were harvested using ACCUTASE™ (Innovative Cell Technologies Inc., Cat No AT-104) and centrifuged (450×g) for 7 minutes. Cell supernatant was aspirated off and cells were resuspended in 1 mL PBS and counted on a Beckerman-Coulter Z2 particle counter (range 10 μm-30 μm).
(§5) Total RNA was extracted using RNeasy Mini Kit (Qiagen Cat. No. 74104). RNA was quantified using an absorbance measurement at 260 nm. RNA was converted to cDNA using Quantitect Reverse Transcription Kit (Qiagen Cat. No. 205310) in a thermocycler. RNA was incubated in the DNA elimination reaction for 2 minutes at 42° C. then incubated in the reverse-transcription master mix for 15 minutes at 42° C. Immediately after, it was incubated at 95° C. for 3 minutes for inactivation. cDNA was sent to an outside lab (CU-Anschutz Metabolic Laboratory) for q-PCR to detect relative or absolute gene expression levels. cDNA was diluted 1:5 and iTaq Universal Supermix fluorescent probe (BioRad Cat. No. 172-5120) used to detect the threshold cycle (Ct) during PCR. Dilution factors and cDNA concentrations were calculated into recorded values then normalized to untreated hMSCs (Vitro Biopharma Cat. No. SC00A1).
For orientation: Real-time PCR tracks product formation cycle by cycle.

The next series deals with SIRT-1. The series is described as follows: qPCR gene expression analysis in human MSCs. The class given is cell-based. The following applies: up to 2 weeks; for SIRT-1 expression increase: 250 μM VPA, 500 nM curcumin, FIG. 13. As to the method: as §1, §2, §3, §4, §5
For another series, the system named is Oct 3/4. The series is described as follows: qPCR gene expression analysis in human MSCs. The class given is cell-based. The conditions noted are these: for Oct 3/4 expression increase: 250 μM VPA, 500 nM curcumin, compared to beta-actin, FIG. 13. As for the experimental part: as §1, §2, §3, §4, §5
The next series has as its system Hsp70. Description: qPCR gene expression analysis in human MSCs. The conditions noted are these: for Hsp70 expression increase: 250 μM VPA, 500 nM curcumin, up to 2 weeks, FIG. 13. The class given is cell-based. As for the experimental part: as §3, §4, §5
Another series relates to CXCR4. Description: qPCR gene expression analysis in human MSCs. The class given is cell-based. The following applies: for CXCR4 expression increase: 250 μM VPA, 500 nM curcumin, up to 2 weeks, FIG. 13. As for the experimental part: as §3, §4, §5
For another series, the system named is human MSCs. The series is described as follows: Stem cell migration assay (percent closure of cell-free zone). The conditions noted are these: for EC50: Homo sapiens. As to the method: FIG. 1 is a microphotograph depicting cell migration using fluorescent readout and cell tracker green as a fluorescent marker of human UC-MSCs. […] The EC50 was determined as a measure of effectiveness of activating agents. […] An initial analysis of the cell free zone using Image J software was used to screen concentrations of activating agents for dose-response determination in further experiments.
The cell migration assays described above were set up as follows: One million cells/cell line were resuspended in 10 mL MSC-GRO™ serum free, quiescent medium (Vitro Biopharma Cat. No. SC00B17) containing […] mitomycin C (Sigma, Cat. No. M4287) to inhibit proliferation and incubated for 2 hours at room temperature with end-to-end agitation at 7 RPM. In some experiments, curcumin was used at 1 μM to block proliferation. Cells were centrifuged (450×g) for 7 minutes, washed with phosphate buffered saline (PBS) and then resuspended in 1 mL MSC-GRO™ low serum, complete 20 medium (Vitro Biopharma Cat. No. SC00B1) and plated at 25,000 cells/well in black 96 well, TC-coated cell culture plates, (ThermoScientific, Cat. No. 165305) containing cell seed-stoppers (Platypus, Cat. No. CMAUFL4) to form a cell free zone at the center of the well and incubated in 5% CO2, 1% O2, 94% N2 at 37° C. in a humidified chamber for 24 hrs. Plates used for culture of NSCs, were first treated with 10 μg/mL fibronectin (Sigma, Cat. No. F0556) for 2 hours at 37° C. Following washout with PBS (3×), cell seed stoppers were inserted, NSCs were plated at 25,000/well and incubated in 5% CO2, 1% O2, 94% N2 at 37° C. in a humidified chamber for 48 hrs. For studies of the effects of CXCR4 and MMP-9 inhibition, following 24 hours of cell culture, appropriate wells were dosed with 15 μM GM6001 and 20 μM AMD3100 for 6 hours. Cells were washed once with PBS then incubated in serum free, MSC-GRO™ (Vitro Biopharma Cat. No. SC00B17) containing 5 μM Cell Tracker Green CMFDA (Molecular Probes, Cat. No. C7025) at 37° C. for 30 minutes. The wells were then washed with serum free, MSC-Gro™ (Vitro Biopharma Cat. No. SC00B17) and incubated for 30 minutes at 37° C. Cells were washed once with PBS and this was replaced with MSC-GRO™ serum free, quiescent medium (Vitro Biopharma Cat. No. SC00B1I7) containing different concentrations of activating agents. […] A TOPSEAL™ (PerkinElmer, Cat. No. 6050195) covered the plate for live-cell imaging in a BioTek Cytation3 Imaging Reader. […] The gas phase throughout the acquisition of kinetic data was 5% O2, 5% CO2 with the balance nitrogen maintained by a BioTek CO2/O2 gas controller. Images were saved as TIFF files to calculate percent closure using imaging data.

Another series relates to MSCs. The series is described as follows: Cell-based proliferation assay (Presto Blue). The following applies: Homo sapiens. As for the experimental part:
(§6) The effects of fibroblast growth factor 2 (FGF-2), lithium, and VPA on stem cell proliferation were then investigated, using an assay based on Presto Blue, a fluorescent marker of cellular reduction. FIG. 8 is a line graph representation illustrating proliferation of different cell lines induced by increasing concentrations of FGF-b (FGF-2) after a 5 day exposure. Relative fluorescent units were measured using a FITC filter on a Modulus Microplate Reader and plotted as a function of FGF-2. The data were modeled by sigmoidal curve fitting to calculate EC50 values. […] Proliferation of these mesenchymal cells was stimulated by recombinant human FGF-2 with EC50 values in the range of 3 ng/mL to 6 ng/mL with maximal proliferative responses at about 10 ng/mL.

A further series deals with human fibroblast. The conditions noted are these: read-out: EC50, human fibroblast migration induced by substance P, prior study; suspension culture system; Parenti et al. 1996; cited from earlier work.
Series [1] relates to CAFs, primary fibroblasts and MSCs. Description: Cell-based proliferation assay (Presto Blue). Details: species or system human. The conditions noted are these: 5 day exposure; FIG. 8. As to the method:
as §6

[2] abbreviates: curcumin at 500 nM, statistically significant.

In the case of `CCCC(=O)[O-].[Na+]` [Na butyrate], the FGF-21 expression increase result with FGF-21 was “lower levels”. For the same compound, in the series on SIRT-1, the SIRT-1 expression increase result is “significantly less effective”. For the same compound, in the series on Oct 3/4 (up to 2 weeks), the “Oct 3/4 expression increase” value is reported as “less expression activation”. Also, the Hsp70 expression increase result with Hsp70 is “lower levels”. In the series with CXCR4, the CXCR4 expression increase result is on record as “lower levels”.

Take `CC(/C=C/C(=O)NO)=C\[C@@H](C)C(=O)c1ccc(N(C)C)cc1` [TSA]: the FGF-21 expression increase result in the series on FGF-21 is “lower levels”. The SIRT-1 expression increase entry with SIRT-1 is listed as “significantly less effective”. For the same compound, the “Oct 3/4 expression increase” value in the series on Oct 3/4 (up to 2 weeks) was “less expression activation”. Further, the Hsp70 expression increase result in the series with Hsp70 was “lower levels”. For the same compound, in the series on CXCR4, the CXCR4 expression increase result is “lower levels”.

With `CCCC(CCC)C(=O)O` [VPA, valproic acid], in the series with SIRT-1 (31.25 μM VPA, 200 μM lithium, FIG. 11), the “SIRT-1 expression increase vs untreated MSC” value was around 300 fold. Moreover, in the series with Oct 3/4 (31.25 μM VPA, 200 μM lithium, up to 2 weeks, FIG. 11), the “Oct 3/4 expression increase vs untreated human MSCs” value is “about 20 fold”. Besides, the “Oct 3/4 expression increase” value in the series on Oct 3/4 (up to 2 weeks) was “about 20 fold”. The EC50 is 36 µM with human MSCs (read-out: EC50, migration, increasing VPA in 200 μM lithium, MSCs, FIG. 6); 39 µM with MSCs (120 h, increasing VPA in 200 μM lithium, MSCs, 5 day exposure, FIG. 10, read-out: EC50, proliferation); 35 to 39 µM in the series on MSCs (in the presence of 200 μM lithium, MSCs and NSCs, range over migration and proliferation assays, read-out: VPA concentration 50% effective in inducing cell proliferation and migration); 37 µM in the series with MSCs (in the presence of 200 μM lithium, MSCs and NSCs, read-out: VPA concentration 50% effective in inducing cell proliferation and migration, mean). Further, the “concentration of maximum closure” value in the series on human MSCs (VPA alone, FIG. 5) was 100 µM.

With `COc1cc(/C=C/C(=O)CC(=O)/C=C/c2ccc(O)c(OC)c2)ccc1O` [curcumin], the “FGF-21 expression increase compared to untreated cells” value in the series with FGF-21 (setting [2]) was “at least 20 fold”. In addition, the “Oct 3/4 expression increase” value with Oct 3/4 (up to 2 weeks) is given as “about 20 fold”. In the series on Oct 3/4 (setting [2]), the “Oct 3/4 expression increase compared to untreated cells” value is “at least 10 fold”. In the series with human MSCs (36-hour run, FIG. 4), the “concentration at which curcumin blocked migration by apparent toxicity” value was “greater than 1 μM” and the “estimated LD50 (apparent toxicity, reduced cell number)” value is 3 µM. Also, the EC50 in the series with human MSCs (36 h, read-out: apparent EC50, curcumin-induced migration) turned out to be 0.25 µM. In the series on Hsp70 (setting [2]), the “Hsp70 expression increase compared to untreated cells” value is listed as “at least 20 fold”. Moreover, in the series with CXCR4 (setting [2]), the “CXCR-4 expression increase compared to untreated cells” value is given as “at least 20 fold”.

In the case of `CSCC[C@H](NC(=O)[C@H](CC(C)C)NC(=O)CNC(=O)[C@H](Cc1ccccc1)NC(=O)[C@H](Cc1ccccc1)NC(=O)[C@H](CCC(N)=O)NC(=O)[C@H](CCC(N)=O)NC(=O)[C@@H]1CCCN1C(=O)[C@H](CCCCN)NC(=O)[C@@H]1CCCN1C(=O)[C@@H](N)CCCNC(=N)N)C(N)=O` [substance P], the EC50 in the series on human fibroblast was 0.0022 µM. Also, the “MSC migration into cell-free zone” value with human MSCs (3.7 nM substance P, 24 hours, human UC-MSCs, FIG. 1) is given as “induced MSC migration into the cell-free center of the well”. Also, the “migration (percent closure) dose-response” value with human MSCs (CB-MSCs, 0 to 18.5 nM, 24-hour live cell analysis, FIG. 2) is recorded as “migration increased in a dose-dependent manner”.

In the case of `CCCCC(=O)O` [valeric acid], the FGF-21 expression increase result with FGF-21 is reported as “lower levels”. For the same compound, in the series with SIRT-1, the SIRT-1 expression increase result is listed as “significantly less effective”. For the same compound, the “Oct 3/4 expression increase” value in the series on Oct 3/4 (up to 2 weeks) was “less expression activation”. Moreover, the Hsp70 expression increase result with Hsp70 is listed as “lower levels”. In addition, in the series with CXCR4, the CXCR4 expression increase result is given as “lower levels”.

Take “FGF-2: recombinant human fibroblast growth factor 2”: the “concentration of maximal proliferative responses” value in series [1] is “about 10 ng/mL”.

The values above are taken from patent publication US20250268948A1, “COMPOSITIONS AND METHODS FOR TREATING POST ACUTE SEQUELAE OF SARS-COV-2 INFECTION (LONG COVID)” (priority 2022, published 2025).
